Legend:
Format in all cases: cell-based
HepG2 = assay: Cell proliferative assay (MTT), HepG2; conditions: Homo sapiens, 72 h incubation, read-out: IC50s HepG2
How it was run: (§1)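 Absorbance at 590 nm after MTT addition gives cell viability. Compounds at graded doses are incubated with the cells for 72 h, following a 24 h settling period after seeding.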

SW620 = assay: Cell proliferative assay (MTT), SW620; conditions: Homo sapiens, SW-620, 72 h incubation, read-out: IC50s SW620
Protocol: (§2) The synthesized compounds were evaluated for their cytotoxin activity against suspended tumor cells. These cells were seeded on 96-well plates and incubated for 24 h. Selected compounds were added at various doses and incubated for 72 h, MTT was then added, and the absorbance was measured at a wavelength of 590 nm. IC50 values are expressed as the mean±SEM from the dose-response curves of at least three independent experiments.

HT29 = assay: Cell proliferative assay (MTT), HT29; conditions: Homo sapiens, HT-29, 72 h incubation, read-out: IC50s HT29
Protocol: as §2

K562 = assay: Cell proliferative assay (MTT), K562; conditions: Homo sapiens, 72 h incubation, read-out: IC50s K562
How it was run: as §1

HCT116 = assay: Cell proliferative assay (MTT), HCT116; conditions: Homo sapiens, HCT-116, 72 h incubation, read-out: IC50s HCT116
Protocol: as §2

Structure (SMILES)	IC50 (HepG2) [µM]	IC50 (SW620) [µM]	IC50 (HT29) [µM]	IC50 (K562) [µM]	IC50 (HCT116) [µM]
COc1ccc(C(=O)/C=C/c2ccc(-n3ccnc3)cc2)c2c1C=CC(C)(C)O2 [SKLBC-15, (E)-3-(4-(1H-imidazol-1-yl)phenyl)-1-(5-methoxy-2,2-dimethyl-2H-chromen-8-yl)prop-2-en-1-one]	> 10	> 10	6.6	> 10	8.05
COc1ccc(C(=O)/C=C/c2ccc(C(F)(F)F)cc2)c2c1C=CC(C)(C)O2 [SKLBC-19, (E)-1-(5-methoxy-2,2-dimethyl-2H-chromen-8-yl)-3-(4-(trifluoromethyl)phenyl)prop-2-en-1-one]	> 10	> 10	> 10	> 10	> 10
COc1ccc(C(=O)/C=C/c2ccccc2)c2c1C=CC(C)(C)O2 [SKLBC-20, (E)-1-(5-methoxy-2,2-dimethyl-2H-chromen-8-yl)-3-phenylprop-2-en-1-one]	> 10	> 10	> 10	> 10	> 10
COc1ccc(/C=C/C(=O)c2ccc(OC)c3c2OC(C)(C)C=C3)cn1 [SKLBC-21, (E)-1-(5-methoxy-2,2-dimethyl-2H-chromen-8-yl)-3-(6-methoxypyridin-3-yl)prop-2-en-1-one]	> 10	> 10	> 10	> 10	> 10
COc1ccc(C(=O)/C=C/c2ccc(O)cc2)c2c1C=CC(C)(C)O2 [SKLBC-22, (E)-3-(4-hydroxyphenyl)-1-(5-methoxy-2,2-dimethyl-2H-chromen-8-yl)prop-2-en-1-one]	> 10	> 10	> 10	> 10	> 10
COc1ccc(C(=O)/C=C/c2cccc(O)c2)c2c1C=CC(C)(C)O2 [SKLBC-23, (E)-3-(3-hydroxyphenyl)-1-(5-methoxy-2,2-dimethyl-2H-chromen-8-yl)prop-2-en-1-one]	> 10	> 10	> 10	> 10	> 10

Continued, values first:

IC50 (HepG2) [µM]	IC50 (SW620) [µM]	IC50 (HT29) [µM]	IC50 (K562) [µM]	IC50 (HCT116) [µM]	Structure (SMILES)
> 10	> 10	> 10	> 10	> 10	COc1ccc(C(=O)/C=C/c2ccc(OC)c(OC)c2OC)c2c1C=CC(C)(C)O2 [SKLBC-24, (E)-1-(5-methoxy-2,2-dimethyl-2H-chromen-8-yl)-3-(2,3,4-trimethoxyphenyl)prop-2-en-1-one]
> 10	> 10	> 10	> 10	9.71	COc1ccc(C(=O)/C=C/c2cccc(C(F)(F)F)c2)c2c1C=CC(C)(C)O2 [SKLBC-25, (E)-1-(5-methoxy-2,2-dimethyl-2H-chromen-8-yl)-3-(3-(trifluoromethyl)phenyl)prop-2-en-1-one]
> 10	> 10	> 10	> 10	> 10	CCOc1cc(/C=C/C(=O)c2ccc(OC)c3c2OC(C)(C)C=C3)ccc1O [SKLBC-26, (E)-3-(3-ethoxy-4-hydroxyphenyl)-1-(5-methoxy-2,2-dimethyl-2H-chromen-8-yl)prop-2-en-1-one]
> 10	> 10	> 10	> 10	> 10	COc1ccc(C(=O)/C=C/c2ccsc2)c2c1C=CC(C)(C)O2 [SKLBC-27, (E)-1-(5-methoxy-2,2-dimethyl-2H-chromen-8-yl)-3-(thiophen-3-yl)prop-2-en-1-one]
> 10	> 10	> 10	> 10	> 10	COc1ccc(C(=O)/C=C/c2ccc(O)c(Br)c2)c2c1C=CC(C)(C)O2 [SKLBC-29, (E)-3-(3-bromo-4-hydroxyphenyl)-1-(5-methoxy-2,2-dimethyl-2H-chromen-8-yl)prop-2-en-1-one]

Source: patent publication US9394268B2, “(E)-1-(5-methoxy-2,2-dimethyl-2H-chromen-8-yl)-3-(4-methoxyphenyl)prop-2-en-1-one and analogs thereof, as well as preparation method and use thereof” (Sichuan University, priority 2012, dated 2016)
